Converted amounts (≈) assume the structure as drawn. A value given as a limit tells only on which side of the number the result lay.

Common to all, as to format: cell-based
Experiment [1] relates to Escherichia coli ATCC 25922. Description: Etest strip MIC, conventional method by flooding of the medium. The following applies: for MIC: Escherichia coli, ATCC25922, ATCC 25922, 0.5 McFarland, read-out: minimum inhibitory concentration; for minimum inhibitory concentration: ATCC 25922, 0.5 McFarland. As to the method:
(§1) Another method for detecting sensitivity to antibiotics uses an antibiotic gradient deposited on an agar medium. For this purpose, paper or plastic strips are impregnated with a concentration gradient of antibiotic. The strips soaked in this way are graduated so as to indicate the antibiotic concentration values present along the strip. One or more strips may be placed on a Mueller-Hinton agar, inoculated beforehand in the same way as the above method. After incubation, an ovoid area of inhibition of microbial growth around each strip appears if the microorganism present in the sample is sensitive to the antibiotic contained in the strip. It is thus possible to deduce a minimum inhibitory concentration (MIC) for microbial growth. The minimum concentration of the antimicrobial agent which makes it possible to inhibit the growth of the microorganism which is generally retained is thus the value of the concentration which can be read on the graduation directly below the point of contact between the zone of inhibition and the long edge of the strip. In other words, the MIC is the concentration visible at the limit of the zone of inhibition, at the boundary between the zone of growth of the microorganisms and the zone of non-growth. More particularly, the MIC can be read by noting the point at which the ovoid area of the zone of inhibition intersects the strip, and by noting the corresponding graduation.
(§2) According to a first experiment of this example, an inoculum of a strain of Escherichia coli ATCC 35218 (American Type Culture Collection) having a concentration of 0.5 McFarland is thus deposited in droplets along four Etest® strips (bioMérieux), each deposited on a Mueller Hinton E agar culture medium (bioMérieux). The strips contain respectively a concentration gradient of gentamicin, tetracycline, ampicillin/sulbactam, ampicillin. In the same manner, an inoculum of a strain of Escherichia coli ATCC 25922 having a concentration of 0.5 McFarland is deposited in droplets along four Etest® strips (bioMérieux), each deposited on a Mueller Hinton E agar culture medium (bioMérieux). The strips also contain a concentration gradient of gentamicin, tetracycline, ampicillin/sulbactam, ampicillin.
(§3) The values are given in μg/ml at different incubation times. The inhibition values for the flooding method are measured from images obtained by a shadowgraphy capture device as described above. The inhibition values for the method according to the invention are measured from images obtained by a shadowgraphy capture device at 5 hours, and visually at 7 hours.

Experiment [2] has as its system Escherichia coli ATCC 35218. In words: Etest strip MIC, deposition of the sample in droplets along the strip. Details: key to minimum inhibitory concentration / MIC: R = resistant.
Text: (§4) FIGS. 8a to 8d and 9a to 9d illustrate this second example of implementation of the invention. According to FIG. 8a, a sample 1 is deposited in the form of a series of droplets, along an axis parallel to the long edge of a strip 3 containing a concentration gradient of chemical agent. The strip 3 comprises graduations of concentrations of chemical agent 13, making it possible to deduce a minimum inhibitory concentration of chemical agent. An example of such a strip is sold by the applicant under the trade name Etest®. According to the FIG. 8b, a strip 3 containing a chemical agent 5 is deposited on a culture medium 2 contained in a Petri dish 4 (for example a Petri dish with a diameter greater than or equal to 9 cm). The detail B in FIG. 8b is visible in FIG. 8c. A sample 1 is deposited in the form of a series of droplets in a deposition zone 8 along an axis 7 parallel to the long edge of the strip 3. In this example, 13 nanoliter drops are deposited by a Pipejet P9 Nanodispenser pipette sold by the company biofluidix and mounted on a robotic arm. The detail C in FIG. 8c is visible in FIG. 8d. 50 droplets are thus deposited along the axis 7 with an interval P of 800 μm. Each droplet covers a surface area of approximately 1 mm^2.
as §2
(§5) Fifty droplets, each with a volume of 13 nanoliters and spaced apart by 800 μm, are deposited along each strip. As a function of the concentration of 0.5 McFarland, it is thus estimated that approximately 2000 bacteria are present in each droplet. The eight culture media prepared in this way are then incubated and monitored periodically in order to determine the presence or the absence of a zone of inhibition and/or of growth of the microorganisms.
FIGS. 9a to 9d illustrate a plan view of the four media in which the sample of Escherichia coli ATCC 35218 was deposited. FIGS. 9a to 9d are obtained by means of a shadowgraphy capture device as presented in relation to FIG. 5. FIG. 9a presents a view after 5 hours of incubation of the sample in the presence of gentamicin. […] A minimum inhibitory concentration value is then obtained at the intersection between the straight line 14 and the long edge of the strip. A minimum inhibitory concentration (MIC) of 2 μg/ml is thus determined.
Advantageously, a straight line or an arc 15 delimiting the boundary of the zone of growth of microorganisms and the zone of inhibition may be sought, this straight line not necessarily being perpendicular to the long edge and thus reproducing said boundary more faithfully. This straight line or this arc corresponds to a portion of the ovoid area of inhibition observed with conventional inoculation methods and therefore enables better estimation of the MIC. In the case in which a straight line or an arc 15 is sought, the minimum inhibitory concentration may be obtained by tracing a line perpendicular to the long edge of the strip, crossing the point of intersection between the straight line 15 and the axis of deposition of the sample 7, then by seeking the graduation corresponding to this perpendicular line on the strip. […]

The test system of experiment [3] is Escherichia coli ATCC 35218. Description: Etest strip MIC, conventional method by flooding of the medium. Further details: key: R = resistant. As to the method: as §1, §2, §3
Experiment [4] has as its system Escherichia coli ATCC 25922. In words: Etest strip MIC, deposition of the sample in droplets along the strip. As to conditions: for MIC: Escherichia coli, ATCC25922, ATCC 25922, 0.5 McFarland, read-out: minimum inhibitory concentration; for minimum inhibitory concentration: ATCC 25922, 0.5 McFarland.
Text: as §4, §2, §5
The minimum inhibitory concentration results obtained for the strains of Escherichia coli ATCC 35218 and also the strains of Escherichia coli ATCC 25922 are compared with the conventional method by flooding of the medium in table 1 below. The values are given in μg/ml at different incubation times. The inhibition values for the flooding method are measured from images obtained by a shadowgraphy capture device as described above. The inhibition values for the method according to the invention are measured from images obtained by a shadowgraphy capture device at 5 hours, and visually at 7 hours.

The mark [5] stands for this setting: Deposition in droplets, ATCC 35218, 0.5 McFarland, incubation time 5 H (shadowgraphy).
Setting [6] is: Deposition in droplets, ATCC 35218, 0.5 McFarland, incubation time 7 H (visual).
Where [7] appears, read: Escherichia coli, ATCC35218, droplets of 13 nanoliters, ATCC 35218 at 0.5 McFarland, after 5 hours of incubation, shadowgraphy (FIGS. 9a-9d), read-out: minimum inhibitory concentration (MIC).
Where [8] appears, read: Table 2, droplet (replicate 1 where replicated), ATCC 35218, 0.5 McF, 5 H.
The mark [9] stands for this setting: Table 2, droplet (replicate 1 where replicated), ATCC 35218, 0.5 McF, 7 H.
Where [10] appears, read: Flooding, ATCC 35218, 0.5 McFarland, incubation time 6 H.
Setting [11] is: Flooding, ATCC 35218, 0.5 McFarland, incubation time 8 H.
Setting [12] is: Table 2, flooding, ATCC 35218, 28 H.
Where [13] appears, read: incubation time 5 H (shadowgraphy).

`CC1(C)S[C@@H]2[C@H](NC(=O)[C@H](N)c3ccccc3)C(=O)N2[C@H]1C(=O)O` [Ampicillin, ampicillin]: the MIC in experiment [1] (incubation time 6 H) was 3.43 µg/mL (≈ 9.82 µM); in experiment [1] (incubation time 8 H), 5.21 µg/mL (≈ 14.9 µM); in experiment [1] (incubation time 18 H) it was 5.69 µg/mL (≈ 16.3 µM); in experiment [2] (setting [7]) it was over 256 µg/mL; in experiment [2] (setting [8]), “R”; in experiment [2] (setting [9]), “R”. Also, the MIC result in experiment [3] (setting [12]) is “R”; in experiment [4] (setting [13]), 8 µg/mL (≈ 22.9 µM); in experiment [4] (incubation time 7 H (visual)), 8 µg/mL (≈ 22.9 µM). For the same compound, the minimum inhibitory concentration result in experiment [2] (setting [5]) is “R”; in experiment [2] (setting [6]), “R”; in experiment [3] (setting [10]), “R”; in experiment [3] (setting [11]) it was “R”; in experiment [3] (Flooding, ATCC 35218, 0.5 McFarland, incubation time 18 H), “R”.
For the compound `CN(C)[C@@H]1C(O)=C(C(N)=O)C(=O)[C@@]2(O)C(O)=C3C(=O)c4c(O)cccc4[C@@](C)(O)[C@H]3C[C@@H]12` [Tetracycline, tetracycline], the MIC in experiment [1] (incubation time 4 H) was determined as 0.3 µg/mL (≈ 0.675 µM); in experiment [1] (incubation time 5 H), 0.6 µg/mL (≈ 1.35 µM); in experiment [1] (incubation time 6 H), 0.66 µg/mL (≈ 1.49 µM); in experiment [1] (incubation time 8 H) it was 0.86 µg/mL (≈ 1.94 µM); in experiment [1] (incubation time 24 H), 1.77 µg/mL (≈ 3.98 µM); in experiment [2] (Escherichia coli, ATCC35218, Deposition in droplets, ATCC 35218, 0.5 McFarland, incubation time 5 H (shadowgraphy), read-out: minimum inhibitory concentration), 1.5 µg/mL (≈ 3.38 µM). The MIC in experiment [2] (Escherichia coli, ATCC35218, Deposition in droplets, ATCC 35218, 0.5 McFarland, incubation time 7 H (visual), read-out: minimum inhibitory concentration) came out at 2 µg/mL (≈ 4.5 µM); in experiment [2] (Escherichia coli, ATCC35218, Table 2, droplet (replicate 1 where replicated), ATCC 35218, 0.5 McF, 5 H, read-out: MIC), 1.5 µg/mL (≈ 3.38 µM); in experiment [2] (Escherichia coli, ATCC35218, Table 2, droplet (replicate 1 where replicated), ATCC 35218, 0.5 McF, 7 H, read-out: MIC), 2 µg/mL (≈ 4.5 µM); in experiment [2] (setting [7]), 1.5 µg/mL (≈ 3.38 µM); in experiment [3] (Escherichia coli, ATCC35218, Flooding, ATCC 35218, 0.5 McFarland, incubation time 4 H, read-out: minimum inhibitory concentration), 0.44 µg/mL (≈ 0.99 µM); in experiment [3] (Escherichia coli, ATCC35218, Flooding, ATCC 35218, 0.5 McFarland, incubation time 5 H, read-out: minimum inhibitory concentration), 0.86 µg/mL (≈ 1.94 µM). The MIC in experiment [3] (Escherichia coli, ATCC35218, Flooding, ATCC 35218, 0.5 McFarland, incubation time 6 H, read-out: minimum inhibitory concentration) came out at 0.96 µg/mL (≈ 2.16 µM); in experiment [3] (Escherichia coli, ATCC35218, Flooding, ATCC 35218, 0.5 McFarland, incubation time 8 H, read-out: minimum inhibitory concentration), 1.12 µg/mL (≈ 2.51 µM); in experiment [3] (Escherichia coli, ATCC35218, Flooding, ATCC 35218, 0.5 McFarland, incubation time 24 H, read-out: minimum inhibitory concentration) it was 2.3 µg/mL (≈ 5.18 µM); in experiment [3] (Escherichia coli, ATCC35218, Table 2, flooding, ATCC 35218, 4 H, read-out: MIC) it was 0.44 µg/mL (≈ 0.99 µM); in experiment [3] (Escherichia coli, ATCC35218, Table 2, flooding, ATCC 35218, 5 H, read-out: MIC) it was 0.86 µg/mL (≈ 1.94 µM); in experiment [3] (Escherichia coli, ATCC35218, Table 2, flooding, ATCC 35218, 8 H, read-out: MIC), 1.12 µg/mL (≈ 2.51 µM). Besides, the MIC is 2.3 µg/mL (≈ 5.18 µM) in experiment [3] (Escherichia coli, ATCC35218, Table 2, flooding, ATCC 35218, 28 H, read-out: MIC); 0.96 µg/mL (≈ 2.16 µM) in experiment [3] (Escherichia coli, ATCC35218, Table 2, flooding, ATCC 35218, column 4 headed 8 H (between 5 H and 7 H), read-out: MIC); 1.5 µg/mL (≈ 3.38 µM) in experiment [4] (setting [13]); 2 µg/mL (≈ 4.5 µM) in experiment [4] (incubation time 7 H (visual)).
With gentamicin, the minimum inhibitory concentration in experiment [1] (incubation time 4 H) stood at 1.74 µg/mL; in experiment [1] (incubation time 5 H), 1.51 µg/mL; in experiment [1] (incubation time 6 H) it was 1.75 µg/mL; in experiment [1] (incubation time 8 H), 1.82 µg/mL; in experiment [1] (incubation time 24 H), 1.54 µg/mL; in experiment [2] (setting [5]), 2 µg/mL. The minimum inhibitory concentration was found to be 2 µg/mL in experiment [2] (setting [6]); 0.96 µg/mL in experiment [3] (Flooding, ATCC 35218, 0.5 McFarland, incubation time 4 H); 1.14 µg/mL in experiment [3] (Flooding, ATCC 35218, 0.5 McFarland, incubation time 5 H); 1.17 µg/mL in experiment [3] (setting [10]); 1.17 µg/mL in experiment [3] (setting [11]); 1.06 µg/mL in experiment [3] (Flooding, ATCC 35218, 0.5 McFarland, incubation time 24 H). Also, the minimum inhibitory concentration in experiment [4] (setting [13]) and in experiment [4] (incubation time 7 H (visual)) was 2 µg/mL in each case. The MIC in experiment [2] (setting [8]) is 2 µg/mL; in experiment [2] (setting [9]), 2 µg/mL; in experiment [3] (Table 2, flooding, ATCC 35218, 4 H), 0.96 µg/mL; in experiment [3] (Table 2, flooding, ATCC 35218, 5 H), 1.14 µg/mL; in experiment [3] (setting [12]), 1.06 µg/mL. For the same compound, in experiment [2] (droplets of 13 nanoliters, ATCC 35218 at 0.5 McFarland, after 5 hours of incubation, shadowgraphy (FIGS. 9a-9d)), the “minimum inhibitory concentration (MIC)” value amounted to 2 µg/mL.

Values taken from patent publication US10870876B2, “Method for detecting a presence or absence of at least one first zone of inhibition” (BIOMÉRIEUX, priority 2015, dated 2020).
